In PMC11249953, “c-KIT inhibitors reduce pathology and improve behavior in the Tg(SwDI) model of Alzheimer’s disease” (Life Science Alliance, 2024):
Values joined by “and” are separate entries in the source; they are usually repeats but may differ in a detail not shown here. Equal values may be shown once.

What was measured:
mice = experiment: Novel object recognition, source data sheet NOR (mouse line not given); type: in vivo; design: key to Probe: DI (Discrimination Index: Novel / Total) / Familiarization: DI / Familiarization: DI, group mean / Familiarization DI: DI = novel-object exploration time / total exploration time of both objects; Familiarization: Total / Familiarization B / Familiarization Total: unit not given here; conditions: for Probe DI: Discrimination Index: Novel / Total; for Probe DI / Familiarization Total / Familiarization B / Familiarization DI / Probe Familiar / Probe Total / Probe Novel / % Difference: one value per mouse; for Familiarization Total / Familiarization B / Familiarization DI / Probe Familiar / Probe Total / Probe Novel: novel object recognition; for Familiarization Total: A + B; for Familiarization B: object B; for Probe Familiar: familiar object; for Probe Total: novel + familiar; for Probe Novel: novel object; for % Difference: probe DI minus familiarization DI, Exclude trials where mice explored <1s; for Familiarization: A (exploration of object A) / Familiarization: B (exploration of object B) / Familiarization: DI / Familiarization: Total / Probe: DI (Discrimination Index: Novel / Total) / Probe: Familiar / Probe: Novel / Probe: Total: individual mice
Method: (§1) Novel object recognition was carried out using a 50 × 50 cm arena with clear walls covered by brown construction paper. Mice were habituated to the room for 30 min each day, before being allowed to freely explore the arena for 5 min two times, for 3 d. On the 4th d, two identical objects were placed in the arena in opposite adjacent corners, 10 cm from the corner of the arena. Mice were placed along the wall opposite from the objects and allowed to freely explore for 10 min. Approach behavior (extending nose toward the object) toward both objects was recorded manually using handheld stop watches and compared with ensure there was no preference for either neutral object. For the probe trial, one object was removed and replaced with a novel object, and mice were again allowed to freely explore for 10 min, with approach time towards the novel and familiar objects recorded. Trials in which the mice explored for less than 1 s were excluded. Discrimination index was calculated by dividing time spent exploring the novel object by total time exploring both objects and was compared for treated versus control animals.

TgAPP mice = experiment: Novel object recognition, TgAPP mice; type: in vivo, mouse; conditions: BK40143 5 mg/kg, BK40197 45 mg/kg IP, 6 wk, vs DMSO
Method: as §1

FLT3 = biological target: T1, FLT3 (Homo sapiens, UniProt P36888); experiment: KINOMEscan competition binding, FLT3; conditions: 10 µM compound; for remaining binding at 10 µM: lower = stronger binding, read-out: FLT3 %Ctrl @ 10000nM (POC)
T1 construct: DNA label for qPCR read-out (T7 phage fusion or DNA tag); purchased Eurofins DiscoverX Corporation; host or cells: T7 phage in E. coli (BL21-derived) or HEK-293
T1 sequence (P36888 27-993): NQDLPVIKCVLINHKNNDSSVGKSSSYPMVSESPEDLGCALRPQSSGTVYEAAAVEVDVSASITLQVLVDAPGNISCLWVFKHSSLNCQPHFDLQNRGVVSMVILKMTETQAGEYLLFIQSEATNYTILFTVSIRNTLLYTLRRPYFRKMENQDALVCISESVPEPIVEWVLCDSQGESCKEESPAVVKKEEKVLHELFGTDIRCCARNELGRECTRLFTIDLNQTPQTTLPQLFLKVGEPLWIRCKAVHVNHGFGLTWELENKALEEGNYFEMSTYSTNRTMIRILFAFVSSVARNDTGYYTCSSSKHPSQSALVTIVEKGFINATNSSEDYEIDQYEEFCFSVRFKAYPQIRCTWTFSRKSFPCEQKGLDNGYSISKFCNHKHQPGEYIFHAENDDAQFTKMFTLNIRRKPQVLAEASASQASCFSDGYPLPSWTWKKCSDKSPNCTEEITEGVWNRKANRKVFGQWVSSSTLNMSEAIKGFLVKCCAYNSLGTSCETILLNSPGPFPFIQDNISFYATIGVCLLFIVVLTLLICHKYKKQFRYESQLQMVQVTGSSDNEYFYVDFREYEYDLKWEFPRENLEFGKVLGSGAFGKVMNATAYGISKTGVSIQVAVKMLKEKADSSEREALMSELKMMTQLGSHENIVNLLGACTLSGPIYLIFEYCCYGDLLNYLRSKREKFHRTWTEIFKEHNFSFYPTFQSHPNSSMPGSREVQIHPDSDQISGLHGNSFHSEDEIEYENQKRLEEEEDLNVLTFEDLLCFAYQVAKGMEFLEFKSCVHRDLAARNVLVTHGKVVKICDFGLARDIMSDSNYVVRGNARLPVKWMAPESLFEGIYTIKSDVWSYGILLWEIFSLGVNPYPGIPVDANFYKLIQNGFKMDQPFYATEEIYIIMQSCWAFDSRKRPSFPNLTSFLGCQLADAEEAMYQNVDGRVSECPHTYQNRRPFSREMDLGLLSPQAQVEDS
Method: (§2) The KINOMEscan screening platform (Eurofins DiscoverX Corporation) was performed using active site-directed competition binding assay to quantitatively measure interactions between BK40143 and BK40197 and more than 450 human kinases and disease relevant mutant variants. […] Screening “hits” are identified by measuring the amount of kinase captured in test (BK40143 and BK40197) versus control samples by using a quantitative and ultra-sensitive qRT-PCR method that detects the associated DNA label. BK40143 and BK40197 were screened at 10 µM concentration, and results for primary screen binding interactions were reported as “% Ctrl” (POC), where lower numbers indicate stronger hits and calculated as follows: [test compound signal−positive control signal/negative control signal−positive control signal]×100
(§3) negative control = DMSO (100% Ctrl)
(§4) positive control = control compound (0% Ctrl)
(§5) Based on screening data from of profiled compounds, a proportional relationship between primary screening results and corresponding compound/target affinities can be described as binding constants (Kd values) for the indicated ranges of POC values with tighter binding (higher affinity) interactions associated with lower POC values and weaker binding (lower affinity) associated with higher POC values. Briefly, kinase-tagged T7 phage strains were grown in parallel in 24-well blocks in an E. coli host derived from the BL21 strain. E. coli were grown to log-phase and infected with T7 phage from a frozen stock (multiplicity of infection = 0.4) and incubated with shaking at 32°C until lysis (90–150 min). The lysates were centrifuged (6,000g) and filtered (0.2 μm) to remove cell debris. The remaining kinases were produced in HEK-293 cells and subsequently tagged with DNA for qRT-PCR detection. Streptavidin-coated magnetic beads were treated with biotinylated small molecule ligands for 30 min at RT to generate affinity resins for kinase assays. The liganded beads were blocked with excess biotin and washed with blocking buffer (1% BSA, 0.05% Tween 20, 1 mM DTT; SeaBlock [Pierce]) to remove unbound ligand and to reduce non-specific phage binding. Binding reactions were assembled by combining kinases, liganded affinity beads, and test compounds in 1x binding buffer (20% 0.17x PBS, 0.05% Tween 20, 6 mM DTT; SeaBlock). Test compounds were prepared as 100x stocks in 100% DMSO and directly diluted into the assay. All reactions were performed in polypropylene 384-well plates in a final volume of 0.02 ml. The assay plates were incubated at RT with shaking for 1 h and the affinity beads were washed with wash buffer (1x PBS, 0.05% Tween 20). […] The kinase concentration in the eluates was measured by qRT-PCR.

PDGFRa = biological target: T2, PDGFRa (Homo sapiens, UniProt P16234); experiment: KINOMEscan competition binding, PDGFRa; conditions: 10 µM compound; for remaining binding at 10 µM: lower = stronger binding, read-out: PDGFRa %Ctrl @ 10000nM (POC)
T2 construct: DNA label for qPCR read-out (T7 phage fusion or DNA tag); purchased Eurofins DiscoverX Corporation; host or cells: T7 phage in E. coli (BL21-derived) or HEK-293
T2 sequence (P16234 24-1089): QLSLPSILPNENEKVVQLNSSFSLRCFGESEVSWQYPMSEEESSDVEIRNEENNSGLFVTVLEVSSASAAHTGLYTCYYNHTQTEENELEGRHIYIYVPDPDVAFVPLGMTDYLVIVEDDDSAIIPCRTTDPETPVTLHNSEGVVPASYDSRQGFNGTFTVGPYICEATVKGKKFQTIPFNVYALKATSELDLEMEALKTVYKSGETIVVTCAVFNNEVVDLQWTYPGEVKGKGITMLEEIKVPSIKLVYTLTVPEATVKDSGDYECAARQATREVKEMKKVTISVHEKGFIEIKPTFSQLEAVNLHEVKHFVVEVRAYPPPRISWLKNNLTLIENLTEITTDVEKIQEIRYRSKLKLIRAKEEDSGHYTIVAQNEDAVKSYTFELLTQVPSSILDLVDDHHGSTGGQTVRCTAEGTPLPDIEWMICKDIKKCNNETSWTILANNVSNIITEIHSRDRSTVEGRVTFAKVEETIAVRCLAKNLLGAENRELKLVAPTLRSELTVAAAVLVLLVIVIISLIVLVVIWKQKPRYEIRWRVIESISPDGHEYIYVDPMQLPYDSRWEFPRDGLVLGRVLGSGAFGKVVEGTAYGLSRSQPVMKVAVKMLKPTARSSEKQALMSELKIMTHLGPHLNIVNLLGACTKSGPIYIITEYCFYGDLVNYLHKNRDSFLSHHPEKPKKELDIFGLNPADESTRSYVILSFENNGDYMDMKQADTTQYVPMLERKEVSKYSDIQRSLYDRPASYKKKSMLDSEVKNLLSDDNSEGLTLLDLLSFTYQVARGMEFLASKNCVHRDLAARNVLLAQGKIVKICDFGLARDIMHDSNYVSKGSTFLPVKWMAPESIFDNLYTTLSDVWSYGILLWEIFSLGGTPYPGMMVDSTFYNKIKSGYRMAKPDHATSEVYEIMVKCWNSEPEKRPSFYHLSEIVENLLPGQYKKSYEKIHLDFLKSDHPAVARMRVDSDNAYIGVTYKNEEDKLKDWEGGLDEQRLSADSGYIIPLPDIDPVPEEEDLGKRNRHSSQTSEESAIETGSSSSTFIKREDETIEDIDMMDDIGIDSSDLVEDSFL
Method: as §2, §3, §4, §5

In the case of `Cc1cccc(-c2cc3nccc(N4CCOCC4)c3s2)c1` [BK40197], the “Probe DI” value (mice; listed as 197) is reported as 0.7189 and 0.4276 and 0.6036 and 0 and 0.3497 and 0.7629 and 0.5645, the “Familiarization Total” value (mice; listed as 197) is reported as 6.07 and 3.17 and 0.72 and 1.59 and 2.09 and 99.73 and 4.98 and 1.54 and 46.43 and the “Familiarization B” value (mice; listed as 197) is reported as 4.54 and 2.11 and 0 and 0.44 and 2.09 and 67.09 and 3.73 and 0.91 and 31.96. For the same molecule, the “Familiarization DI” value (mice; listed as 197) was 0.2521 and 0.3344 and 1 and 0.7233 and 0 and 0.3273 and 0.251 and 0.4091 and 0.3117, the “Probe Familiar” value (mice; listed as 197) was 3.8 and 3.44 and 1.78 and 0.31 and 0 and 59.03 and 0.92 and 1.62 and the “Probe Total” value (mice; listed as 197) was 13.52 and 6.01 and 4.49 and 0.31 and 0 and 90.78 and 3.88 and 3.72. The “Probe Novel” value (mice; listed as 197) was 9.72 and 2.57 and 2.71 and 0 and 31.75 and 2.96 and 2.1, the “% Difference” value (mice; listed as 197) was 46.6876% and 9.324% and -39.6437% and 2.2463% and 51.1883% and 15.5425% and the “novel object recognition: time exploring the novel object” value (TgAPP mice) was “spent significantly greater amounts of time exploring the novel object”. The inhibition at 10 µM (FLT3) was 89%, the remaining binding at 10 µM (FLT3) was 11% and the inhibition at 10 µM (PDGFRa) was 74%. It also gave a remaining binding at 10 µM (PDGFRa) of 26%.
`Cc1cccc(-c2cc3nccc(Nc4ccccc4)c3s2)c1` [BK40143] was tested, and the “Familiarization: DI, group mean” value (mice; 2.5mg/kg) was 0.4194, the “Probe: DI, group mean” value (mice; 2.5mg/kg) was 0.6322 and the “Familiarization: A (exploration of object A)” value (mice; 2.5mg/kg, listed as 143) was 79.74 and 23.94 and 6.51 and 4.1 and 1.73 and 91.39 and 3.94. For the same molecule, the “Familiarization: B (exploration of object B)” value (mice; 2.5mg/kg, listed as 143) was 36.19 and 20.07 and 19.62 and 23.82 and 2.46 and 58.89 and 9.8, the “Familiarization: DI” value (mice; 2.5mg/kg, listed as 143) was 0.6878 and 0.544 and 0.2491 and 0.1468 and 0.4129 and 0.6081 and 0.2868 and the “Familiarization: Total” value (mice; 2.5mg/kg, listed as 143) was 115.93 and 44.01 and 26.13 and 27.92 and 4.19 and 150.28 and 13.74. The “Probe: DI (Discrimination Index: Novel / Total)” value (mice; 2.5mg/kg, listed as 143) was 0.6527 and 0.5219 and 0.7012 and 0.6866 and 0 and 0.6684 and 0.5624, the “Probe: Familiar” value (mice; 2.5mg/kg, listed as 143) was 12.56 and 26.64 and 26.04 and 10.96 and 0.71 and 19.02 and 21.52 and the “Probe: Novel” value (mice; 2.5mg/kg, listed as 143) was 23.6 and 29.08 and 61.12 and 24.01 and 0 and 38.34 and 27.66. The “Probe: Total” value (mice; 2.5mg/kg, listed as 143) was 36.16 and 55.72 and 87.16 and 34.97 and 0.71 and 57.36 and 49.18, the “Familiarization: DI, group mean” value (mice; 5.0mg/kg) was 0.4517 and the “Probe: DI, group mean” value (mice; 5.0mg/kg) was 0.5431. The “Familiarization: A (exploration of object A)” value (mice; 5.0mg/kg, listed as 143) was 6.57 and 57.74 and 55.12 and 0 and 31.22 and 2.26 and 24.68 and 3.81, the “Familiarization: B (exploration of object B)” value (mice; 5.0mg/kg, listed as 143) was 6.09 and 45.42 and 59.49 and 0 and 28.62 and 34.43 and 1.4 and 35.06 and 3.14 and the “Familiarization: DI” value (mice; 5.0mg/kg, listed as 143) was 0.519 and 0.5597 and 0.4809 and 0 and 0.4756 and 0.6175 and 0.4131 and 0.5482. For the same molecule, the “Familiarization: Total” value (mice; 5.0mg/kg, listed as 143) was 12.66 and 103.16 and 114.61 and 0 and 28.62 and 65.65 and 3.66 and 59.74 and 6.95, the “Probe: DI (Discrimination Index: Novel / Total)” value (mice; 5.0mg/kg, listed as 143) was 0.5491 and 0.4762 and 0.6019 and 0.4523 and 0.4543 and 0.6392 and 0.6671 and 0.5538 and 0.5229 and 0.5147 and the “Probe: Familiar” value (mice; 5.0mg/kg, listed as 143) was 31.58 and 54.9 and 31.99 and 22.78 and 6.63 and 10.02 and 2.44 and 2.49 and 12.81 and 27.34. The “Probe: Novel” value (mice; 5.0mg/kg, listed as 143) was 38.46 and 49.91 and 48.36 and 18.81 and 5.52 and 17.75 and 4.89 and 3.09 and 14.04 and 29, the “Probe: Total” value (mice; 5.0mg/kg, listed as 143) was 70.04 and 104.81 and 80.35 and 41.59 and 12.15 and 27.77 and 7.33 and 5.58 and 26.85 and 56.34 and the “Probe DI” value (mice; listed as 143) was 0.8287 and 0.6842 and 0.7687 and 1 and 0 and 0.615 and 0.4318 and 0.5747 and 0.1499 and 0.6797. The “Familiarization Total” value (mice; listed as 143) was 4.02 and 1.72 and 5.39 and 2.97 and 7.23 and 16.69 and 3.49 and 11.99 and 18.68 and 5.99, the “Familiarization B” value (mice; listed as 143) was 4.02 and 0.91 and 0.51 and 1.41 and 5.2 and 7.29 and 2.89 and 7.23 and 11.16 and 3.62 and the “Familiarization DI” value (mice; listed as 143) was 0 and 0.4709 and 0.9054 and 0.5253 and 0.2808 and 0.5632 and 0.1719 and 0.397 and 0.4026 and 0.3957. The “Probe Familiar” value (mice; listed as 143) was 0.62 and 0.78 and 0.31 and 0 and 0.83 and 2.41 and 0.5 and 20.09 and 39.82 and 2.04, the “Probe Total” value (mice; listed as 143) was 3.62 and 2.47 and 1.34 and 5.82 and 0.83 and 6.26 and 0.88 and 47.24 and 46.84 and 6.37 and the “Probe Novel” value (mice; listed as 143) was 3 and 1.69 and 1.03 and 5.82 and 0 and 3.85 and 0.38 and 27.15 and 7.02 and 4.33. For the same molecule, the “% Difference” value (mice; listed as 143) was 82.8729% and 21.328% and -13.6724% and 47.4747% and 5.18% and 17.7727% and 28.4089%, the “novel object recognition: time exploring the novel object” value (TgAPP mice) was “spent significantly greater amounts of time exploring the novel object” and the inhibition at 10 µM (FLT3) was 95.3%. It also gave a remaining binding at 10 µM (FLT3) of 4.7%, an inhibition at 10 µM (PDGFRa) of 98.1% and a remaining binding at 10 µM (PDGFRa) of 1 to 10%.
